The text below walks through data of patent publication US10227349B2, “Pyrazolo[1,5-a]pyrimidine compound” (Eisai R&D Management Co., Ltd., priority 2016, dated 2019).

One test concerns the target T1, PAR2 (Mus musculus, UniProt P55086).
T1 construct: orally administered to C57BL/6J male mice (Charles River), 6-10 weeks of age; tissue Charles River; host or cells: Living C57BL/6J male mice (in vivo; saliva secretion)
T1 sequence (P55086 26-399): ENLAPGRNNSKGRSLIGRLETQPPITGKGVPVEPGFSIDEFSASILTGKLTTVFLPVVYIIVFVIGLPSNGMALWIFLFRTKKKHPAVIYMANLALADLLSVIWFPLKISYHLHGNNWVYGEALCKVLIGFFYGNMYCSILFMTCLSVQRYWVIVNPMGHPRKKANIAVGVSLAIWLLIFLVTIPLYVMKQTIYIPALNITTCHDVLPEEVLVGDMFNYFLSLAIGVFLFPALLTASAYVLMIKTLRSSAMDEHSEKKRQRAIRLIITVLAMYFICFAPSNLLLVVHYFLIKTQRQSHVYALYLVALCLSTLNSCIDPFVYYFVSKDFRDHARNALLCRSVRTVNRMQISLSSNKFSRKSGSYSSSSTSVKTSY
Description: Measurement of PAR2 agonist (SLIGRL-NH2)-induced salivation in mouse. It is filed as in vivo. The settings on record: C57BL/6J male mice, 0.3 mg/mL solution 10 mL/kg orally, 60 min before SLIGRL-NH2 i.p., saliva collected 10 min.

Test [1] relates to DNFB-induced dermatitis in BALB/c male mice. Description: Mouse dermatitis model (DNFB-induced auricle swelling). It is filed as in vivo. The conditions noted are these: 0.3 mg/mL solution 10 mL/kg orally 8 hours after DNFB induction, auricle thickness on following day. The protocol: The test compound was added to a 0.5% carboxymethyl cellulose solution so as to have the final concentration of 0.3 mg/mL, thereby preparing an administration solution containing the test compound. Hapten used was 2,4-dinitrofluorobenzene (DNFB, Wako Pure Chemical Industries).
Twenty-five (25) μL of a solution of DNFB diluted to 0.4% with a mixed solvent of acetone and an olive oil in a volume ratio of 2:1 was applied twice to the shaved abdominal region of BALB/c male mice (Charles River), 6-10 weeks of age, over a period of 2 days to create the sensitization. Four days after the sensitization, on the first day, 20 μL of a solution of DNFB diluted to 0.2% with a mixed solvent of acetone and an olive oil in a volume ratio of 2:1 was applied to the right auricle of the mouse to induce dermatitis. Eight hours after the induction of dermatitis, the administration solution containing the test compound (10 mL/kg) was orally administered to the mouse. On the day following the induction of dermatitis, the right auricle thickness of the mouse was measured using a thickness gauge to evaluate the action of the test compound.
Note that Reference Example 1 in Table 5 is Compound (XIX).

With `CO[C@H]1CN(C(=O)c2cc3nc(-c4cc(F)c(Cl)c(F)c4)cc(N(C)c4c(C)cccc4F)n3n2)CC[C@H]1CC(=O)O` [Example 10, 2-((3R,4S)-1-(5-(4-chloro-3,5-difluorophenyl)-7-((2-fluoro-6-methylphenyl)(methyl)amino)pyrazolo[1,5-a]pyrimidine-2-carbonyl)-3-methoxypiperidin-4-yl)acetic acid], the “Inhibitory activity on the PAR2-dependent saliva secretion (%)” value on PAR2 turned out to be 92.2%. In addition, the “Inhibitory activity on auricle swelling (%)” value in test [1] was 52.9%.

Turning to `C[C@@H](c1ccccc1)N(C)c1cc(-c2cc(F)c(F)c(F)c2)nc2cc(C(=O)N3CCC(CC(=O)O)CC3)nn12` [Reference Example 1, (S)-2-(1-(7-(methyl(1-phenylethyl)amino)-5-(3,4,5-trifluorophenyl)pyrazolo[1,5-a]pyrimidine-2-carbonyl)piperidin-4-yl)acetic acid, reference compound], on PAR2, the “Inhibitory activity on the PAR2-dependent saliva secretion (%)” value amounted to 95.9%. In test [1], the “Inhibitory activity on auricle swelling (%)” value worked out at 22.3%.
